This note sets out measurements from US8101570B2, “Single branch heparin-binding growth factor analogs” (BioSurface Engineering Technologies, Inc., priority 2005, dated 2012).

The target in one assay is T1, human PDGF-R-alpha (Homo sapiens, UniProt P16234).
T1 construct: Soluble PDGF receptor, recombinant chimera of human PDGF-R-alpha; purchased R&D Systems
Description: Surface plasmon resonance (BIAcore) binding to immobilized soluble PDGF receptor alpha. The note with it: SPR, 1:1 fit; for kon: read-out: Ka (association rate constant); for koff: read-out: Kd (dissociation rate constant). The procedure: (§1) Surface Plasmon Resonance (SPR) Analysis. Real-time biomolecular interactions were analyzed with a BIAcore 2000 system (Biacore Inc., Piscataway, N.J.). Soluble PDGF receptor, recombinant chimera of human PDGF-R-alpha and PSGF-R-beta (R &D Systems, Minneapolis, Minn.), was immobilized on research grade CM5 chips (Biacore Inc., Piscataway, N.J.). Following activation with EDC/NHS, the receptors were immobilized on activated CM5 chips. To obtain kinetic data, different concentrations of analytes in HBS-EP buffer were injected over the sensor chip at a flow rate of 50 μl/min. Peptide binding was measured in resonance units (RU). At the end of each sample injection (120 s) buffer was passed over the sensor surface to monitor the dissociation phase. Reference responses from blank flow cells were subtracted from receptor-containing flow cells for each analyte injection and the kinetic parameters for each interaction were determined by globally fitting the experimental data to a 1:1 interaction with BIAEVALUATION software (Biacore Inc., Piscataway, N.J.). The association rate constant and the dissociation rate constant (ka and kd, respectively), and the equilibrium dissociation constant (KD) are presented in the Table 3 for the receptors and PBA2-1.
as §1, with “4” for “3”

For a further assay, the target named is T2, PDGF R Beta (Homo sapiens, UniProt P09619).
T2 construct: Soluble PDGF receptor, recombinant chimera of human PDGF-R-alpha and PSGF-R-beta; purchased R&D Systems
Nature of the assay: Surface plasmon resonance (BIAcore) binding to immobilized soluble PDGF receptor beta. The note with it: for kon / koff: SPR, 1:1 fit; for kon: read-out: Ka (association rate constant); for koff: read-out: Kd (dissociation rate constant). The procedure: as §1
as §1, with “4” for “3”
(In general: SPR reads the build-up and loss of mass on a sensor chip optically.)

Assay [1] has as its system C2C12 cells. Description: Alkaline phosphatase assay in C2C12 cells in the presence of recombinant BMP-7. The class given is cell-based, mouse. To be noted: serum low medium containing BMP-7, FIG. 8. The procedure: This peptide was evaluated using C2C12 cells and in the presence of recombinant BMP-7 and using alkaline phosphatase production as an endpoint. Alkaline phosphatase assays were performed using mouse the pluripotent cell lines C2C12. Cells were plated in 96-well (1×10^4/well) plates and allowed 24 hours to attach. The medium was then replaced with a serum low medium containing BMP-7 and/or B7A1-6. After several days, cells were rinsed, lysed, and alkaline phosphatase activity measured using p-nitrophenylphosphate as substrate.

The next assay deals with Sup-T1 cells. Description: Sup-T1 cell proliferation. It counts as cell-based. To be noted: low serum, 3 days, FIG. 2. The procedure: Cell proliferation. Sup-T1 cells were obtained from the American Type Culture Collection (Manassas, Va.) and were grown in culture. To monitor the effect of SD1-1 on cell proliferation, Sup-T1 cells were seeded at 100,000 cells per well of a 96-well plate and allowed to attach. The medium was changed to one containing low serum plus SD1-1 and the cells incubated for 3 days after which time the relative cell number was determined using a commercially available kit Referring now to FIG. 2, data in the graph below is reported as the average±SD. Commercially-available recombinant human SDF-1 (diamond) was used as a reference and positive control for comparison of proliferation stimulated by […].

For assay [2], the system named is C2C12 cells. Nature of the assay: C2C12 cell migration, trans-well insert assay. It counts as cell-based. The note with it: 8 μm pore membrane coated with collagen, FIG. 3. On the procedure:
Cell migration. SD1-1 was evaluated for its ability to induce migration of C2C12 cells using a commercially-available cell migration assay. C2C12 cells were seeded on a trans-well insert containing an 8 μm pore size polycarbonate membrane coated with a thin layer of polymerized collagen. The inserts were placed into wells with medium containing SD1-1. Cells that migrated through the membrane were found on the bottom of the insert membrane. These cells were stained, and the stain extracted and detected on a standard microplate reader (560 nm). Referring now to FIG. 3, the results of cell migration in response to the SD1-1 peptide as compared to SDF-1 peptide or control are illustrated. Data is reported as the average±SD.

A further assay relates to M-NSF-60 cells. Description: Augmentation of growth of M-NSF-60 cells in the presence of rhGCSF. The class given is cell-based. To be noted: 0.01 ng rhGCSF, FIG. 9. The procedure: This peptide was evaluated for augmentation of growth using M-NSF-60 cells in the presence of 0.01 ng rhGCSF.

Where two headings read alike, the source gives them in different places. Where a SMILES comes first, the peptide text is derived from it. Bridges are numbered along the chain shown (N, C = ends). Roman numbers before positions name the chains, in order. Where no end group is shown, it is not given here. [ ]: non-standard residue; d: D form. Hx = not defined here; Ahx = NCCCCCC(=O)O

T1 sequence (P16234 24-528 limits assumed): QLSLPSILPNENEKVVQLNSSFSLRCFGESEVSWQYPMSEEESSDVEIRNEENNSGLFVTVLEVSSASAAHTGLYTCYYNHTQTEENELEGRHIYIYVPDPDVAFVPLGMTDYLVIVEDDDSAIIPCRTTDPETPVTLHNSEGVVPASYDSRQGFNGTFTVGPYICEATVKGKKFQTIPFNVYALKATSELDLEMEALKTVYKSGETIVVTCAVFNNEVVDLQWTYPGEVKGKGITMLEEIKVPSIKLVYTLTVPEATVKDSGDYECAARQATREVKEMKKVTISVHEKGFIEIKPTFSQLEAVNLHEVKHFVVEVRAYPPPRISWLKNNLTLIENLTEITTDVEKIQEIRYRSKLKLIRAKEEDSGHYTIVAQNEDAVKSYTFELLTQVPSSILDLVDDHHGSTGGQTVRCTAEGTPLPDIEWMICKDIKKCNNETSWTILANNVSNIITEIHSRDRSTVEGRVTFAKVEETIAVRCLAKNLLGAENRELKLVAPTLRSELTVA
T2 sequence (P09619 33-532 limits assumed): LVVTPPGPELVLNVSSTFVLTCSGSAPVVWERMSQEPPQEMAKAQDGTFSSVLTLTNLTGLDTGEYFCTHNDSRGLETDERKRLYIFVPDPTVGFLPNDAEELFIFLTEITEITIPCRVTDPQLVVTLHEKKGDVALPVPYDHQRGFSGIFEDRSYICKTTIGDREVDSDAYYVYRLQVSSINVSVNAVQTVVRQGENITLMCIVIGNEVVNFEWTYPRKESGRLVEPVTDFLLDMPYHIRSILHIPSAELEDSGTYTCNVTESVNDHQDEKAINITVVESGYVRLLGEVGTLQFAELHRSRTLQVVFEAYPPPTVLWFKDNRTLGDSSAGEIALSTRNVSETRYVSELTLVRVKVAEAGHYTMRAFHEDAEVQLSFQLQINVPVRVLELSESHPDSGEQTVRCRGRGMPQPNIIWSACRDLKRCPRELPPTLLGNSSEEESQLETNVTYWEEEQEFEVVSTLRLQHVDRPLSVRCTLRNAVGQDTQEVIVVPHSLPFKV

The Kd is the free concentration of one partner at which half of the binding sites on the other are occupied at equilibrium, for simple one-to-one binding. Higher therefore signals lower affinity. As for `CC[C@H](C)[C@H](NC(=O)[C@H](CCCNC(=N)N)NC(=O)[C@H](CCC(=O)O)NC(=O)[C@H](CC(C)C)NC(=O)[C@H](CCCCN)NC(=O)[C@H](CCCNC(=N)N)NC(=O)[C@H](CCCCN)NC(=O)[C@H](CCCNC(=N)N)NC(=O)CCCCCNC(=O)CCCCCNC(=O)CCCCCNC(=O)[C@H](CCCCNC(=O)[C@H](CCCCN)NC(=O)[C@H](CCCCN)NC(=O)[C@H](CCCNC(=N)N)NC(=O)[C@@H](NC(=O)[C@@H](NC(=O)[C@H](CCC(=O)O)NC(=O)[C@@H](NC(=O)[C@H](CCCCN)NC(=O)[C@H](CCCNC(=N)N)NC(=O)[C@@H](N)C(C)C)[C@@H](C)CC)[C@@H](C)CC)C(C)C)NC(=O)[C@H](CCCCN)NC(=O)[C@H](CCCCN)NC(=O)[C@H](CCCNC(=N)N)NC(=O)[C@@H](NC(=O)[C@@H](NC(=O)[C@H](CCC(=O)O)NC(=O)[C@@H](NC(=O)[C@H](CCCCN)NC(=O)[C@H](CCCNC(=N)N)NC(=O)[C@@H](N)C(C)C)[C@@H](C)CC)[C@@H](C)CC)C(C)C)C(=O)N[C@@H](C)C(=O)N[C@@H](CCCNC(=N)N)C(N)=O` [PBA2-1, VRKIEIVRKKK(VRKIEIVRKK)HxHxHxRKRKLERIAR-amide] (I: H-VRKIEIVRKKK[Ahx][Ahx][Ahx]RKRKLERIAR-NH2 / II: H-VRKIEIVRKK; amide I:11-II:C), the kon at human PDGF-R-alpha (Table 3, PDGF R Alpha) was determined as 198000 M⁻¹ s⁻¹; on human PDGF-R-alpha (Table 4, Alpha), 414000 M⁻¹ s⁻¹; at PDGF R Beta (Table 3, PDGF R Beta), 133000 M⁻¹ s⁻¹; at PDGF R Beta (Table 4, Beta), 353000 M⁻¹ s⁻¹. Further, the koff on human PDGF-R-alpha (Table 3, PDGF R Alpha) was 0.00336 s⁻¹; at human PDGF-R-alpha (Table 4, Alpha) it was 0.00965 s⁻¹; on PDGF R Beta (Table 3, PDGF R Beta), 0.00296 s⁻¹; on PDGF R Beta (Table 4, Beta), 0.00714 s⁻¹. The molecule also gave a Kd at PDGF R Beta of 20.2 nM.

In the case of “AISVLYFDDSSNVILKKK(AISVLYFDDSSNVILKK)HxHxHxRKRKLERIAR-amide (chain 1 AISVLYFDDSSNVILKKK-{Hx-Hx-Hx-Arg-Lys-Arg-Lys-Leu-Glu-Arg-Ile-Ala-Arg-NH2}; reading uncertain; also: chain 2 C-terminus branched onto side chain of Lys18 of chain 1, bond at chain A 18 to a chain's C-terminus) [Example B7A1-6]”, the “effect on BMP-7 activity (alkaline phosphatase activity)” value in the assay on C2C12 cells [1] was “dose-dependant suppression of the activity of BMP-7”.

On to “KPVSLSYRAPARFFESHVAK(KPVSLSYRAPARFFESHVA)HxHxHxRKRKLERIAR-amide [SD1-1]”, for which the “cell proliferation (relative cell number)” value in the assay on Sup-T1 cells is given as “concentration dependent induction of cell proliferation”. Also, the cell migration entry with C2C12 cells [2] is listed as “induced cell migration”.

“SDF-1: Commercially-available recombinant human SDF-1 used as a reference and positive control [reference compound]”: the “cell proliferation (relative cell number)” value with Sup-T1 cells is “concentration dependent induction of cell proliferation”. Also, in the assay with C2C12 cells [2], the cell migration result was “induced cell migration”.

As for “SFLLKALEQVRKIQYK(SFLLKALEQVRKIQY)HxHxHxRKRKLERIAR-amide (chain 1 SFLLKALEQVRKIQYK-{Hx-Hx-Hx-Arg-Lys-Arg-Lys-Leu-Glu-Arg-Ile-Ala-Arg-NH2}; reading uncertain; also: chain 2 C-terminus branched onto side chain of Lys16 of chain 1, bond at chain A 16 to a chain's C-terminus) [GCSF1]”, the “augmentation of cellular growth” value in the assay on M-NSF-60 cells is recorded as “augmented cellular growth”.
